The text below walks through data of ChEMBL document CHEMBL1142582, “Lignans and their degraded derivatives from Sarcostemma acidum” (2005).

In general, MIC refers to the smallest concentration in the dilution series that meets the test's criterion for growth inhibition.

What all share (assay type): functional
Assay [1] relates to Candida albicans. The assay is described as follows: Antimicrobial activity against Candida albicans ATCC 1600 after 48 hrs by broth microdilution test. The following applies: ATCC 1600, 48 h. In general terms: Dilution methods test growth across graded concentrations, often in twofold steps.
For assay [2], the system named is Staphylococcus aureus. The assay is described as follows: Antimicrobial activity against Staphylococcus aureus ATCC 25923 after 18 hrs by broth microdilution test. The conditions noted are these: ATCC 25923, 18 h.
Assay [3] deals with Staphylococcus epidermidis. Put plainly: Antimicrobial activity against Staphylococcus epidermidis ATCC 12228 after 18 hrs by broth microdilution test. The following applies: ATCC 12228, 18 h.

Molecules are shown by their SMILES. Converted amounts (≈) assume the structure as drawn. A value given as a limit tells only on which side of the number the result lay.

`COc1cc([C@@H]2c3cc(OC)c(O)c(OC)c3C=C(C)[C@H]2C)cc(OC)c1O` (relative stereo) [SACIDUMLIGNAN B]: the MIC in assay [1], in assay [2] and in assay [3] was above 130 µM throughout.
With `C=CCc1ccc(O)c(-c2cc(CC=C)ccc2O)c1` [MAGNOLOL], the minimum inhibitory concentration (MIC) in assay [2] came out at 47 µM (≈ 12.5 µg/mL); in assay [3], 23 µM (≈ 6.13 µg/mL).
`COC(=O)C1=CC[C@@]23CC[C@@H]([C@@](C)(/C=C/C=C(\C)C(=O)O)OC2=O)[C@@]3(OC(C)=O)CC1` [PSEUDOLARIC ACID B]: the MIC in assay [1] was found to be 14 µM (≈ 6.05 µg/mL).
`COc1cc(-c2c(C)c(C)cc3c(OC)c(O)c(OC)cc23)cc(OC)c1O` [SACIDUMLIGNAN A]: the MIC in assay [1] is above 130 µM; in assay [2] it was 130 µM (≈ 50 µg/mL); in assay [3] it was 65 µM (≈ 25 µg/mL).
